Results reported in ChEMBL document CHEMBL2424579, “Quinazolin-4-one derivatives as selective histone deacetylase-6 inhibitors for the treatment of Alzheimer's disease” (J Med Chem, 2013).
The source made the active and inactive calls. No cut-off for these calls is given here.

Key:
[1] = target: T1, Amyloid-beta precursor protein (Homo sapiens, UniProt P05067); assay: Inhibition of amyloid beta aggregation (unknown origin) after 4 hrs by thioflavin S assay in absence of Zn2+
[2] = target: Histone deacetylase 2 (Homo sapiens, UniProt Q92769); assay: Inhibition of human recombinant HDAC2 expressed in baculovirus/sf9 cells using RHKKAc as substrate
[3] = target: T2, Histone deacetylase 11 (Homo sapiens, UniProt Q96DB2); assay: Inhibition of human recombinant HDAC11 expressed in baculovirus/sf9 cells using RHKKAc as substrate
T2 sequence (Q96DB2 whole entry): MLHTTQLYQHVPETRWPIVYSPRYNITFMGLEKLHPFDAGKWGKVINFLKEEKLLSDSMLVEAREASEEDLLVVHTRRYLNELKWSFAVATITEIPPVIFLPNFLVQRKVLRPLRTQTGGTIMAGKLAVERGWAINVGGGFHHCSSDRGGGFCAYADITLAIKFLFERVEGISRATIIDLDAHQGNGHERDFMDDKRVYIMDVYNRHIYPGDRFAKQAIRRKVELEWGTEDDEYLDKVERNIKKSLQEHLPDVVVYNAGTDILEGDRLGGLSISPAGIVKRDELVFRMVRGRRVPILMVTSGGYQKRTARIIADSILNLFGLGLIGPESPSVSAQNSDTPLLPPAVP

[4] = test system: SH-SY5Y; assay: Increase of synaptic activity in human SH-SY5Y cells after 5 days by fluorescence assay; type: functional, cell-based; details: 120 h
[5] = Cytotoxicity against human SH-SY5Y cells at 25 uM; type: cell-based
[6] = target: T3, Histone deacetylase 8 (Homo sapiens, UniProt Q9BY41); assay: Inhibition of human recombinant HDAC8 expressed in baculovirus/sf9 cells using RHKAcKAc as substrate
T3 sequence (Q9BY41 whole entry): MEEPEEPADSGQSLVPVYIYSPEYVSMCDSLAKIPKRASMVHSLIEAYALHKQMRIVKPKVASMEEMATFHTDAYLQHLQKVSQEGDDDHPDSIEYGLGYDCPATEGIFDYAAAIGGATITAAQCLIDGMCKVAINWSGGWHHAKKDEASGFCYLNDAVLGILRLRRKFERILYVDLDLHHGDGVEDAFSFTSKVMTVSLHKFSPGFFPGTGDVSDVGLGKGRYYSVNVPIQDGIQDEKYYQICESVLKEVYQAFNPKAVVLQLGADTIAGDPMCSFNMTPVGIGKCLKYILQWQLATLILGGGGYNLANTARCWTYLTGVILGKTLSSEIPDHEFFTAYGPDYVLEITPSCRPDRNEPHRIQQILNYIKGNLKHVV

[7] = test system: PC-12; assay: Induction of neurite outgrowth in rat PC12 cells at 10 uM after 5 days; type: functional, cell-based
[8] = test system: PC-12; assay: Cytotoxicity against rat PC12 cells at 25 uM; type: cell-based; details: pc-12, 25 µM
[9] = test system: PC-12; assay: Induction of neurite outgrowth in rat PC12 cells after 5 days; type: functional, cell-based; details: PC-12, 120 h
[10] = target: Histone deacetylase 1 (Homo sapiens, UniProt Q13547); assay: Inhibition of human recombinant HDAC1 expressed in baculovirus/sf9 cells using RHKKAc as substrate
[11] = test system: SH-SY5Y; assay: Induction of neurite outgrowth in human SH-SY5Y cells after 5 days; type: functional, cell-based; details: 120 h
[12] = test system: PC-12; assay: Increase of synaptic activity in rat PC12 cells after 5 days by fluorescence assay; type: functional, cell-based; details: PC-12, 120 h
[13] = target: T4, Protein deacetylase HDAC6 (Homo sapiens, UniProt Q9UBN7); assay: Inhibition of human recombinant HDAC6 expressed in baculovirus/sf9 cells using RHKKAc as substrate
T4 sequence (Q9UBN7 whole entry): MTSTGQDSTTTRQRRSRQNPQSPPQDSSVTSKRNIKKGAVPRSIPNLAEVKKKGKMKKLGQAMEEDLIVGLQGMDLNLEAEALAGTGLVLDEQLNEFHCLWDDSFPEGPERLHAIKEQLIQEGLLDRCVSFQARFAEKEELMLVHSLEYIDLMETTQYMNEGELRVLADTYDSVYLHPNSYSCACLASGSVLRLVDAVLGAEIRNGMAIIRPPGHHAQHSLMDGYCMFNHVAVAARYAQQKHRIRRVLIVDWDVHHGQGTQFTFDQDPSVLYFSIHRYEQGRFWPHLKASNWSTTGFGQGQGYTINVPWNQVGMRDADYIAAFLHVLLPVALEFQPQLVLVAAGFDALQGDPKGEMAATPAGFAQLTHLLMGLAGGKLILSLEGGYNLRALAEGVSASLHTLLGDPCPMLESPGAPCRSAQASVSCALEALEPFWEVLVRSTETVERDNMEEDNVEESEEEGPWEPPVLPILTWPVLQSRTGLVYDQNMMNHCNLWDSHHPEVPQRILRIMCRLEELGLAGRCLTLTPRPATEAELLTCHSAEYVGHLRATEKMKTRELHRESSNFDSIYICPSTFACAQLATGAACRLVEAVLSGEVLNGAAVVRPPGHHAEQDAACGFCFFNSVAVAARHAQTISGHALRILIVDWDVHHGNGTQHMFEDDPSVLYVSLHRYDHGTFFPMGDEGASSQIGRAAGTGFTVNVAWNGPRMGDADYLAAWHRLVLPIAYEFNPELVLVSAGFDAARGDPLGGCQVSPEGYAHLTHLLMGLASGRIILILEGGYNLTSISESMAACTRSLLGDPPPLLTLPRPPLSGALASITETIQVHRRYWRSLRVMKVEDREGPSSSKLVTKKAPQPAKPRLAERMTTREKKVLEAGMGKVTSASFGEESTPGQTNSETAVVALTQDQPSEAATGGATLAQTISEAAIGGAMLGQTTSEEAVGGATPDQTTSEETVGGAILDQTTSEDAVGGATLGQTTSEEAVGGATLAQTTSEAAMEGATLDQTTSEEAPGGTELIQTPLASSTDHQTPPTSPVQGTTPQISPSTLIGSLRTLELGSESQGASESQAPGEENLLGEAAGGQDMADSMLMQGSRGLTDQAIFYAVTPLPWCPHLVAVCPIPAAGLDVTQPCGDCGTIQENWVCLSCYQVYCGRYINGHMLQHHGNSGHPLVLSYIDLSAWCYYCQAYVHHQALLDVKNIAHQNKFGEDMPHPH

[14] = test system: SH-SY5Y; assay: Induction of neurite outgrowth in human SH-SY5Y cells at 10 uM after 5 days; type: functional, cell-based
[15] = test system: Vero; assay: Cytotoxicity against african green monkey Vero cells at 25 uM; type: cell-based; details: chlorocebus sabaeus
[16] = target: Poly [ADP-ribose] polymerase 1 (Homo sapiens) (UniProt P09874); assay: Inhibition of PARP1 (unknown origin) up to 25 uM
[17] = test system: PC-12; assay: Induction iof GAP-43 protein expression in rat PC12 cells after 48 hrs by Western blotting analysis; type: functional, cell-based
[18] = target: T1, Amyloid-beta precursor protein; assay: Inhibition of amyloid beta aggregation (unknown origin) after 4 hrs by thioflavin S assay in presence of Zn2+
[19] = organism: Homo sapiens; assay: Selectivity index, ratio of IC50 for human recombinant HDAC1 to IC50 for human recombinant HDAC6
[20] = organism: Homo sapiens; assay: Selectivity index, ratio of IC50 for human recombinant HDAC8 to IC50 for human recombinant HDAC6

T1 sequence (P05067 whole entry): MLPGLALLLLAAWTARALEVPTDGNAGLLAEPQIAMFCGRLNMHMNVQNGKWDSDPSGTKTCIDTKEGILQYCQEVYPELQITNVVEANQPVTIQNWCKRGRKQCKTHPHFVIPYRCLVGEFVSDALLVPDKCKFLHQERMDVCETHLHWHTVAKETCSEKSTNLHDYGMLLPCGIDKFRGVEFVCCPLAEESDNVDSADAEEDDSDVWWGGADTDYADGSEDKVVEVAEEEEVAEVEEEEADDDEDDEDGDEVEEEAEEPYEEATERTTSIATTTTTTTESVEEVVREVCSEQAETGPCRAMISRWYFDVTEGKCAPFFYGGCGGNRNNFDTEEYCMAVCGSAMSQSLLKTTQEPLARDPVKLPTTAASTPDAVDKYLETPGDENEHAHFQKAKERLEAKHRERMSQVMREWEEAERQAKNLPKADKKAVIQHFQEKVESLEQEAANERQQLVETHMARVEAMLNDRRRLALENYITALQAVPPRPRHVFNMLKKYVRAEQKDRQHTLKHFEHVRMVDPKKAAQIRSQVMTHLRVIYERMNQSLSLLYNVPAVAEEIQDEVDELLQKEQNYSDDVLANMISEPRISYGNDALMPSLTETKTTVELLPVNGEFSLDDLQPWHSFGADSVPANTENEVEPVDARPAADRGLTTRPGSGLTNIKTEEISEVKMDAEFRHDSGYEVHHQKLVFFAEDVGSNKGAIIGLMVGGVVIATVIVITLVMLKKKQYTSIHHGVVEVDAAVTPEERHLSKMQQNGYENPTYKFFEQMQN
Histone deacetylase 1, sequence (Q13547 whole entry): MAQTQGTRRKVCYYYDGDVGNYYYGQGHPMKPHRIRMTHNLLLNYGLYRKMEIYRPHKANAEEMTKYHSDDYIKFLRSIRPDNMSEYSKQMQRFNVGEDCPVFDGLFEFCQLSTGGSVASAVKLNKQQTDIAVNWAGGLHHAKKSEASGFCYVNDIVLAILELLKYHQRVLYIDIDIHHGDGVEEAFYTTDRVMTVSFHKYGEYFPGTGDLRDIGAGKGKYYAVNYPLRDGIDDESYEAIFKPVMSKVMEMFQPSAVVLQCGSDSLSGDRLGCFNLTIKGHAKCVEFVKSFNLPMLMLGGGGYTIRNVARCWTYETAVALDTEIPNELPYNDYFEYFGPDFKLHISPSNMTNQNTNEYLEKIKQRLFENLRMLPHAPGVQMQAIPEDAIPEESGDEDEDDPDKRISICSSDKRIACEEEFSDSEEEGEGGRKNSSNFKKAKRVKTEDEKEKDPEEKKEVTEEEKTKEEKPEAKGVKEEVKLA
Histone deacetylase 2, sequence (Q92769 whole entry): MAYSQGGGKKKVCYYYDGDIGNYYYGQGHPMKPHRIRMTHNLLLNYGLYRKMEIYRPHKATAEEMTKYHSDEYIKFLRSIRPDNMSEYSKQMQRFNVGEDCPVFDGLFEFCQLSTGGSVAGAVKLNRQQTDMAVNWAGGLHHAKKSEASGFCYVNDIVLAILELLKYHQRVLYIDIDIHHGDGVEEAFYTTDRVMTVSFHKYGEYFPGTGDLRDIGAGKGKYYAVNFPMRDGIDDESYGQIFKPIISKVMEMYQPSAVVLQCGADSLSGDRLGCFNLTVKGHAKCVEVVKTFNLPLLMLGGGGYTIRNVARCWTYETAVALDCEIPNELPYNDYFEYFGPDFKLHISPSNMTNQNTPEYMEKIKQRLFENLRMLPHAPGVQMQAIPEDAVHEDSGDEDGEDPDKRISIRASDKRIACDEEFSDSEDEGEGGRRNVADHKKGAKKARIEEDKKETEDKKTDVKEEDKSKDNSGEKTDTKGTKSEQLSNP
Poly [ADP-ribose] polymerase 1 (Homo sapiens), sequence (P09874 whole entry): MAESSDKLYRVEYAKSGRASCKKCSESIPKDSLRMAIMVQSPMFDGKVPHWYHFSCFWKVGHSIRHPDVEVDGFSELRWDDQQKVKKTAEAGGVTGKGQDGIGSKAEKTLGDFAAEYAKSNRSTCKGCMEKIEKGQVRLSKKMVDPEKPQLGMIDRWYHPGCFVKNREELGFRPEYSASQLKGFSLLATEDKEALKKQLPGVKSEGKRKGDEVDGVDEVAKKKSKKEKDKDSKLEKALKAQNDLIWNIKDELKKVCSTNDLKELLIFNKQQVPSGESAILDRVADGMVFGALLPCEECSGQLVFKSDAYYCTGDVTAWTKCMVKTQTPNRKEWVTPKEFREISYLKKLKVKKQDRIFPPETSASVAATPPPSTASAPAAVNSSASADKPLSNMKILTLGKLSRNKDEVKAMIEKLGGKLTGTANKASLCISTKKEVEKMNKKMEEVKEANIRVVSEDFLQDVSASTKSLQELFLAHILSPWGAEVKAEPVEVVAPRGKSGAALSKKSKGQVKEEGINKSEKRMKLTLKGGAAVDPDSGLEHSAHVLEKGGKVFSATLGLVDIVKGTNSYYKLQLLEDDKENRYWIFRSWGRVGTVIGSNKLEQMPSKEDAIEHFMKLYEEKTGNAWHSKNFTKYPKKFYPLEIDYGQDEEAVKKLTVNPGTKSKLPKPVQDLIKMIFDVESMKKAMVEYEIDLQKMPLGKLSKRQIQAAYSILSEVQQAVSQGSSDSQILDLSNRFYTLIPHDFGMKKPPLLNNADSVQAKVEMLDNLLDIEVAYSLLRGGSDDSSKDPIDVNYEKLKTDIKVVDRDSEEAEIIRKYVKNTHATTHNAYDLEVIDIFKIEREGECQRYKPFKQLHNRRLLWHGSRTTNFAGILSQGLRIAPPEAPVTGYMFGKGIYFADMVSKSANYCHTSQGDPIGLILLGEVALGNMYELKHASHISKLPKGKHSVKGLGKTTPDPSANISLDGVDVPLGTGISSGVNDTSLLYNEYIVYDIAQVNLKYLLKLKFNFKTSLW

| SMILES | IC50 [1] [µM] | IC50 [2] [µM] | IC50 [3] [µM] | EC50 [4] [µM] | Activity [5] | IC50 [6] [µM] | Activity [7] | Activity [8] | EC50 [9] [µM] | IC50 [10] [µM] | EC50 [11] [µM] | EC50 [12] [µM] | IC50 [13] [µM] | Activity [14] | Activity [15] | inhibition [16] | Activity [17] | IC50 [18] [µM] | Ratio IC50 [19] | Ratio IC50 [20] |
| --- | --- | --- | --- | --- | --- | --- | --- | --- | --- | --- | --- | --- | --- | --- | --- | --- | --- | --- | --- | --- |
| Cc1nc2cc(/C=C/C(=O)NO)ccc2c(=O)n1Cc1ccccc1 | > 50 | 4 | 2.44 | 8.2 | Non-toxic | 1.27 | Active | Non-toxic | 20.9 | 1.45 | > 25 | 8.2 | 0.024 | Active | Non-toxic |  |  |  |  |  |
| CCc1nc2cc(/C=C/C(=O)NO)ccc2c(=O)n1CCc1ccccc1 | > 50 | 4.81 | 2.95 | 0.9 | Non-toxic | 1.18 | Active | Non-toxic | 5.3 | 1.19 | 11 | 7.2 | 0.011 | Active | Non-toxic | inactive | Dose-dependent effect |  |  |  |
| CCc1nc2cc(/C=C/C(=O)NO)ccc2c(=O)n1CCCc1ccccc1 |  | > 12 | 5.59 | 10 | Non-toxic | 1.33 | Active | Non-toxic | 6.6 | 3.2 | 11.7 | 7 | 0.033 | Active | Non-toxic | inactive | Dose-dependent effect |  |  |  |
| CC(C)c1nc2cc(/C=C/C(=O)NO)ccc2c(=O)n1CCc1ccccc1 |  |  |  | 6.7 | Non-toxic |  | Active | Non-toxic | 11.5 | 0.389 | 15 | 5.3 | 0.013 | Active | Non-toxic |  |  |  |  |  |
| O=C(O)c1cccnc1 [NIACIN] | 13.1 |  |  |  |  |  |  |  |  |  |  |  |  |  |  |  |  | 43.7 |  |  |
| CCc1nc2cc(/C=C/C(=O)NO)ccc2c(=O)n1CCc1ccc(F)cc1 |  | 6.88 | 4.25 | 22.2 | Non-toxic | 0.891 | Active | Non-toxic | 18.4 | 2.11 | > 25 | 13.9 | 0.043 | Active | Non-toxic |  |  |  |  |  |
| Cc1nc2cc(/C=C/C(=O)NO)ccc2c(=O)n1CCc1c[nH]c2ccccc12 | > 50 | 2.21 | 1.21 |  | Non-toxic | 1.59 |  | Non-toxic |  | 0.758 |  |  | 0.015 |  | Non-toxic |  |  |  | 51 | 106 |
